{"source": "patent US20180242591A1", "about": "“Insect Repellent” (Evolva SA, priority 2015, published 2018)", "tested_on": "female Aedes aegypti mosquitoes", "assay": "In vitro repellency against mosquitoes, treated collagen membranes over blood-filled wells", "assay_type": "in vivo", "settings": "20% DEET in ethanol (positive control), 25 μL on membrane; probes over 20 minutes; five replicates", "description": "A laboratory trial was conducted to evaluate the repellency of santalol against female Aedes aegypti mosquitoes using an in vitro method. A 20% DEET positive control and untreated and ethanol negative controls were also assessed for comparison purposes. Test substances were applied to prepared collagen membranes placed over heated, blood-filled wells and exposed to mosquitoes. The number of mosquitoes probing each well was recorded at two minute intervals up to 20 minutes. Female adult laboratory reared Aedes aegypti mosquitoes (susceptible) were obtained from Benzon Research in Carlisle, Pa. 250 mosquitoes were used per replicate (5 replicates per test). Adult mosquitoes were 3-8 days old. Santalol was diluted in ethanol to 2% and 5% concentrations. A positive control consisting of 20% DEET in ethanol was prepared using stock solutions. Negative controls consisted of no treatment, and ethanol-only treatment. […] The number of mosquitoes probing each membrane was recorded every two minutes for twenty minutes. […] Percent repellency was calculated for each replicate using the total number of probes with the following formula: [formula] […] Average percent repellency and standard error (SE) were calculated across all five replicates. […]", "note": "Values joined by “and” are separate entries in the source; they are usually repeats but may differ in a detail not shown here. Equal entries are not always repeated.", "data": [{"smiles": "CCN(CC)C(=O)c1cccc(C)c1", "note": "[20% DEET, N,N-Diethyl-meta-toluamide]", "values": [{"measurement": "Average percent repellency ± SE", "value": "93.9% and 93.9 ± 2.3%"}]}]}
